The results in this text go back to the NIST ThermoML archive (doi:10.1016/j.jct.2011.11.021).

Numbers after ± are expanded uncertainties.

The nature of the data set: activity coefficient (dimensionless); of the first substance listed, at infinite dilution; xn = mol fraction of the nth substance listed. The settings on record: Liquid, Chromatography, x1 = 0.

On to `CCC(C)(C)OC` [2-methoxy-2-methylbutane] + COCC[N+]1(C)CCOCC1.O=S(=O)([N-]S(=O)(=O)C(F)(F)F)C(F)(F)F, for which the activity coefficient amounted to 5.55 ± 0.38 (318.15 K); 5.5 ± 0.37 (328.15 K); 5.43 ± 0.37 (338.15 K); 5.37 ± 0.37 (348.15 K); 5.32 ± 0.36 (358.15 K); 5.28 ± 0.36 (368.15 K).
With `O` [water] + COCC[N+]1(C)CCOCC1.O=S(=O)([N-]S(=O)(=O)C(F)(F)F)C(F)(F)F, the activity coefficient was determined as 2.49 ± 0.17 (318.15 K); 2.17 ± 0.15 (328.15 K); 1.94 ± 0.13 (338.15 K); 1.73 ± 0.12 (348.15 K); 1.55 ± 0.1 (358.15 K); 1.41 ± 0.09 (368.15 K).
As for `COC(C)(C)C` [2-methoxy-2-methylpropane] + COCC[N+]1(C)CCOCC1.O=S(=O)([N-]S(=O)(=O)C(F)(F)F)C(F)(F)F, the activity coefficient (318.15 K) stood at 3.53 ± 0.24; the activity coefficient (328.15 K) came to 3.55 ± 0.24; the activity coefficient (338.15 K) worked out at 3.57 ± 0.24; the activity coefficient (348.15 K) amounted to 3.58 ± 0.24; the activity coefficient (358.15 K) came to 3.59 ± 0.24; the activity coefficient (368.15 K) stood at 3.6 ± 0.25.
Regarding `CCCO` [propan-1-ol] + COCC[N+]1(C)CCOCC1.O=S(=O)([N-]S(=O)(=O)C(F)(F)F)C(F)(F)F, the activity coefficient reads like this: (318.15 K) 2.39 ± 0.16; (328.15 K) 2.14 ± 0.15; (338.15 K) 1.96 ± 0.13; (348.15 K) 1.79 ± 0.12; (358.15 K) 1.63 ± 0.11; (368.15 K) 1.52 ± 0.1.
As to `CC(C)CO` [2-methyl-1-propanol] + COCC[N+]1(C)CCOCC1.O=S(=O)([N-]S(=O)(=O)C(F)(F)F)C(F)(F)F, the activity coefficient was determined as 3.19 ± 0.22 (318.15 K); 2.81 ± 0.19 (328.15 K); 2.51 ± 0.17 (338.15 K); 2.25 ± 0.15 (348.15 K); 2.04 ± 0.14 (358.15 K); 1.89 ± 0.13 (368.15 K).
On to `CCC[N+](=O)[O-]` [1-nitropropane] + COCC[N+]1(C)CCOCC1.O=S(=O)([N-]S(=O)(=O)C(F)(F)F)C(F)(F)F, for which the activity coefficient (328.15 K) worked out at 0.791 ± 0.051; the activity coefficient (338.15 K) was found to be 0.787 ± 0.051; the activity coefficient (348.15 K) amounted to 0.783 ± 0.051; the activity coefficient (358.15 K) was found to be 0.78 ± 0.051; the activity coefficient (368.15 K) amounted to 0.778 ± 0.051.
In the case of `CC(C)O` [propan-2-ol] + COCC[N+]1(C)CCOCC1.O=S(=O)([N-]S(=O)(=O)C(F)(F)F)C(F)(F)F, the activity coefficient (318.15 K) is 2.17 ± 0.15; the activity coefficient (328.15 K) stood at 1.95 ± 0.13; the activity coefficient (338.15 K) was 1.79 ± 0.12; the activity coefficient (348.15 K) worked out at 1.63 ± 0.11; the activity coefficient (358.15 K) was determined as 1.5 ± 0.1; the activity coefficient (368.15 K) was determined as 1.4 ± 0.09.
In the case of `C=CCCCCC` [1-heptene] + COCC[N+]1(C)CCOCC1.O=S(=O)([N-]S(=O)(=O)C(F)(F)F)C(F)(F)F, the activity coefficient amounted to 24.9 ± 1.7 (318.15 K); 23 ± 1.6 (328.15 K); 21.7 ± 1.5 (338.15 K); 20.3 ± 1.4 (348.15 K); 19 ± 1.3 (358.15 K); 18.1 ± 1.2 (368.15 K).
On to `C1CCCCCCC1` [cyclooctane] + COCC[N+]1(C)CCOCC1.O=S(=O)([N-]S(=O)(=O)C(F)(F)F)C(F)(F)F, for which the activity coefficient is, setting by setting: (318.15 K) 36.6 ± 2.5; (328.15 K) 32.6 ± 2.2; (338.15 K) 29.6 ± 2; (348.15 K) 26.7 ± 1.8; (358.15 K) 24.2 ± 1.7; (368.15 K) 22.1 ± 1.5.
For `CCCCCCCCC` [nonane] + COCC[N+]1(C)CCOCC1.O=S(=O)([N-]S(=O)(=O)C(F)(F)F)C(F)(F)F, the activity coefficient came out at 125 ± 9 (318.15 K); 108 ± 7 (328.15 K); 95.8 ± 6.6 (338.15 K); 85.6 ± 5.9 (348.15 K); 76.3 ± 5.2 (358.15 K); 68.7 ± 4.7 (368.15 K).
As to `CC(=O)O` [acetic acid] + COCC[N+]1(C)CCOCC1.O=S(=O)([N-]S(=O)(=O)C(F)(F)F)C(F)(F)F, the activity coefficient reads like this: (328.15 K) 0.451 ± 0.036; (338.15 K) 0.456 ± 0.036; (348.15 K) 0.459 ± 0.036; (358.15 K) 0.465 ± 0.036; (368.15 K) 0.468 ± 0.037.
As for `CCCOCCC` [dipropyl ether] + COCC[N+]1(C)CCOCC1.O=S(=O)([N-]S(=O)(=O)C(F)(F)F)C(F)(F)F, the activity coefficient (318.15 K) came to 10.7 ± 0.7; the activity coefficient (328.15 K) is 10.3 ± 0.7; the activity coefficient (338.15 K) amounted to 9.92 ± 0.68; the activity coefficient (348.15 K) amounted to 9.56 ± 0.65; the activity coefficient (358.15 K) came out at 9.2 ± 0.63; the activity coefficient (368.15 K) came out at 8.97 ± 0.61.
Consider `Cc1ccc(C)cc1` [1,4-dimethylbenzene] + COCC[N+]1(C)CCOCC1.O=S(=O)([N-]S(=O)(=O)C(F)(F)F)C(F)(F)F, for which the activity coefficient came out at 3.09 ± 0.21 (318.15 K); 3.06 ± 0.21 (328.15 K); 3.03 ± 0.21 (338.15 K); 3 ± 0.2 (348.15 K); 2.98 ± 0.2 (358.15 K); 2.96 ± 0.2 (368.15 K).
On to `C1CCOC1` [tetrahydrofuran] + COCC[N+]1(C)CCOCC1.O=S(=O)([N-]S(=O)(=O)C(F)(F)F)C(F)(F)F, for which the activity coefficient (318.15 K) came out at 0.858 ± 0.055; the activity coefficient (328.15 K) was determined as 0.867 ± 0.055; the activity coefficient (338.15 K) was determined as 0.873 ± 0.056; the activity coefficient (348.15 K) was found to be 0.882 ± 0.056; the activity coefficient (358.15 K) stood at 0.888 ± 0.057; the activity coefficient (368.15 K) was 0.895 ± 0.057.
As to `CO` [methanol] + COCC[N+]1(C)CCOCC1.O=S(=O)([N-]S(=O)(=O)C(F)(F)F)C(F)(F)F, the activity coefficient runs as follows: (318.15 K) 1.28 ± 0.08; (328.15 K) 1.18 ± 0.08; (338.15 K) 1.1 ± 0.07; (348.15 K) 1.02 ± 0.06; (358.15 K) 0.95 ± 0.06; (368.15 K) 0.897 ± 0.057.
In the case of `CC1CCCCC1` [methylcyclohexane] + COCC[N+]1(C)CCOCC1.O=S(=O)([N-]S(=O)(=O)C(F)(F)F)C(F)(F)F, the activity coefficient came out at 27.6 ± 1.9 (318.15 K); 24.8 ± 1.7 (328.15 K); 22.8 ± 1.6 (338.15 K); 20.9 ± 1.4 (348.15 K); 19.2 ± 1.3 (358.15 K); 17.7 ± 1.2 (368.15 K).
With `C=C(C)c1ccccc1` [(1-methylethenyl)benzene] + COCC[N+]1(C)CCOCC1.O=S(=O)([N-]S(=O)(=O)C(F)(F)F)C(F)(F)F, the activity coefficient runs as follows: (328.15 K) 2.74 ± 0.19; (338.15 K) 2.76 ± 0.19; (348.15 K) 2.78 ± 0.19; (358.15 K) 2.79 ± 0.19; (368.15 K) 2.81 ± 0.19.
Take `CCOCC` [diethyl ether] + COCC[N+]1(C)CCOCC1.O=S(=O)([N-]S(=O)(=O)C(F)(F)F)C(F)(F)F: the activity coefficient came out at 3.49 ± 0.24 (318.15 K); 3.46 ± 0.24 (328.15 K); 3.44 ± 0.23 (338.15 K); 3.41 ± 0.23 (348.15 K); 3.39 ± 0.23 (358.15 K); 3.37 ± 0.23 (368.15 K).
For `Cc1cccc(C)c1` [1,3-dimethylbenzene] + COCC[N+]1(C)CCOCC1.O=S(=O)([N-]S(=O)(=O)C(F)(F)F)C(F)(F)F, the activity coefficient reads like this: (318.15 K) 3.05 ± 0.21; (328.15 K) 3.02 ± 0.21; (338.15 K) 2.99 ± 0.2; (348.15 K) 2.97 ± 0.2; (358.15 K) 2.94 ± 0.2; (368.15 K) 2.92 ± 0.2.
